Reference: patent US8063014B2, “Self-assembly of peptide-amphiphile nanofibers under physiological conditions” (Northwestern University, priority 2002, dated 2011)
Non-standard residues stand in square brackets, D forms with d. Residues, ends and D or L forms follow the SMILES beside them. *: point of attachment. C16 alkyl = N-terminal C16 alkyl tail, CCCCCCCCCCCCCCCC*; Palmitoyl = CCCCCCCCCCCCCCCC(=O)*; pS = N[C@@H](COP(=O)(O)O)C(=O)O

Assays:
[1] = Self-assembly on drying onto a surface; format: physicochemical; conditions: dissolved at neutral / physiological pH (pH 8), dried, negative stain TEM
Text: Such a facile approach allows this novel material to be formed in a pH independent manner, as may be important in applications that are particularly sensitive to changes in pH, including the delivery of cells in conjunction with the gelling system and generally avoiding contact between tissues and materials at non-physiological pH.
Illustrating another gelation factor of this invention, self-assembly can occur by simply taking a PA (such as PA 17, Table 2) or a combination of PAs dissolved in water at pH 8 and placing it on a surface which is allowed to dry (for example, directly on a carbon coated TEM grid). […] (See, FIG. 11.)

[2] = Mineralization of PA nanofibers with CaCl2 and Na2HPO4 on TEM grid; conditions: 30 minutes of incubation with calcium and phosphate
Protocol: To investigate the mineralization properties of PA nanofibers of this invention, the material was assembled and mineralized directly on a holey carbon coated TEM grid—to allow study of the dynamics of the mineralization process while minimizing artifacts of TEM sample preparation. To prepare samples, a drop of aqueous PA (1 mg/ml) was mounted on the holey grid and the self-assembly of the PA was induced in an atmosphere of HCl vapor. The grids were immersed in aqueous iodine to oxidize the cysteine thiol groups to disulfides. After rinsing with distilled water, the PA coated grids were treated with 5 μl of 10 mM CaCl2 on one side and 5 μl of 5 mM Na2HPO4 on the other side. The two solutions are able to mix only by passing through the holes in the carbon support.
In a second control, a PA was prepared in which phosphoserine was replaced by serine and treated as above with calcium and phosphate.

[3] = TEM of self-assembled nanofibers (fiber formation and diameter); format: physicochemical
Protocol: After synthesis (see, example 10), the PA of FIG. 1 (characterized by ^1H NMR and matrix-assisted laser desorption/ionization time-of-flight mass spectrometry (MALDI-TOF MS): matrix ion [M−H]^−1=1333) was treated with dithiothreitol (DTT) at a pH of 8 to reduce all cysteine residues to free thiols. […] However, upon acidification of the solution below pH 4 the material rapidly becomes insoluble. Solutions more concentrated than 2.5 mg/ml form birefringent gels in water that are self-supporting upon inversion of the container. […] Negatives were digitized in the Umax PowerLook scanner with resolution 1200 dpi. The average thickness of the PA fibers was determined by two different procedures. First the Fourier transform of the images and following measurements of the distances between the peaks were performed in the NIH Image […] program. The second approach applied was averaging technique based on the cross-correlation method, widely used in single particle reconstruction using the EMAN […] program. For each data set 1200-1300 individual boxes were selected. […]
Samples of the peptide-amphiphiles were prepared for TEM analysis in two different ways. In some cases a small sample of the gel, prepared in bulk as described above, was smeared onto a holey carbon coated TEM grid (Quantifoil). […]

[4] = Solubility, pH-dependent precipitation and gelation in water; format: physicochemical
Protocol: After synthesis (see, example 10), the PA of FIG. 1 (characterized by ^1H NMR and matrix-assisted laser desorption/ionization time-of-flight mass spectrometry (MALDI-TOF MS): matrix ion [M−H]^−1=1333) was treated with dithiothreitol (DTT) at a pH of 8 to reduce all cysteine residues to free thiols. […] However, upon acidification of the solution below pH 4 the material rapidly becomes insoluble. Solutions more concentrated than 2.5 mg/ml form birefringent gels in water that are self-supporting upon inversion of the container. […] Negatives were digitized in the Umax PowerLook scanner with resolution 1200 dpi. The average thickness of the PA fibers was determined by two different procedures. First the Fourier transform of the images and following measurements of the distances between the peaks were performed in the NIH Image […] program. The second approach applied was averaging technique based on the cross-correlation method, widely used in single particle reconstruction using the EMAN […] program. For each data set 1200-1300 individual boxes were selected.
Several PAs with basic amino acids that can self-assemble at alkaline pH and also mixed systems, in which oppositely charged PAs self-assemble at neutral pH, were prepared. For this purpose PA compounds 22-25 were prepared by standard solid phase peptide synthesis followed by alkylation with the C16 fatty acid, palmitic acid. See Table 2, FIG. 10b (PA 22) and FIGS. 10c-e (PAs 23-25). The peptides thus prepared were characterized by electrospray mass spectroscopy and found to correspond to their respective expected masses.
Solutions of each compound of example 6 were prepared at a concentration of 0.1 mg/m1 at neutral pH.

17 ({C16 alkyl}-CCCCGGG[pS]RGD-OH; cysteine pairing not given here) [compound 17]
self-assembly on drying from solution onto a surface [1]: formation of nanofibers

CCCCCCCCCCCCCCCC(=O)N[C@@H](CS)C(=O)N[C@@H](CS)C(=O)N[C@@H](CS)C(=O)N[C@@H](CS)C(=O)NCC(=O)NCC(=O)NCC(=O)N[C@@H](COP(=O)(O)O)C(=O)N[C@@H](CCCNC(=N)N)C(=O)NCC(=O)N[C@@H](CC(=O)O)C(=O)O [PA 26, Alkyl*-C4G3S^(P)RGD-COOH] (Palmitoyl-CCCCGGG[pS]RGD-OH)
mineral observed on the fibers by TEM [2]: heavy crystallization
fiber diameter, positively and negatively stained dried fibers ([3]; TEM, dried): 6.0±1 nm
fiber diameter, cryo-TEM ([3]; native hydrated gel): 7.6±1 nm
pH below which the material rapidly becomes insoluble on acidification ([4]; acidification of the aqueous solution): < 4 pH
concentration above which solutions form self-supporting birefringent gels in water ([4]; after acidification): > 2500 µg/mL
solubility in water ([4]; pH of 8, DTT-reduced): > 50 mg/mL
